Data on 23 compounds can be found in patent publication US11192877B2, “3-(5-hydroxy-1-oxoisoindolin-2-yl)piperidine-2,6-dione derivatives and uses thereof” (Novartis AG, priority 2018, dated 2021).

Chain of IKZF2 (Helios) (Q9UKS7 whole entry): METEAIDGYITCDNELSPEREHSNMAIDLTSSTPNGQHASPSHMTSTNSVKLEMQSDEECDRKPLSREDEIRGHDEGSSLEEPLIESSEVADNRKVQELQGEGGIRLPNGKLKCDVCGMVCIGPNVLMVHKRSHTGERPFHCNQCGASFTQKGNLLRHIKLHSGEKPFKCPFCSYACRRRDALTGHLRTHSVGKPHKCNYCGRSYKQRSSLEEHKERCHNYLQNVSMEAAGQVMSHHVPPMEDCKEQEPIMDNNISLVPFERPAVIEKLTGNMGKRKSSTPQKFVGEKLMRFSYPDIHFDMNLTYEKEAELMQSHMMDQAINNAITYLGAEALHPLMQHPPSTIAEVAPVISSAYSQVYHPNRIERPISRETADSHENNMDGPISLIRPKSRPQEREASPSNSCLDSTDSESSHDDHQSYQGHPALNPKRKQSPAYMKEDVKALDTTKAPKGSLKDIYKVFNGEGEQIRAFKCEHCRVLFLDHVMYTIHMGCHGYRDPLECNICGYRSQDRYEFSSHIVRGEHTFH
Chain of IKZF2 (Helios) (Q96SW2 whole entry): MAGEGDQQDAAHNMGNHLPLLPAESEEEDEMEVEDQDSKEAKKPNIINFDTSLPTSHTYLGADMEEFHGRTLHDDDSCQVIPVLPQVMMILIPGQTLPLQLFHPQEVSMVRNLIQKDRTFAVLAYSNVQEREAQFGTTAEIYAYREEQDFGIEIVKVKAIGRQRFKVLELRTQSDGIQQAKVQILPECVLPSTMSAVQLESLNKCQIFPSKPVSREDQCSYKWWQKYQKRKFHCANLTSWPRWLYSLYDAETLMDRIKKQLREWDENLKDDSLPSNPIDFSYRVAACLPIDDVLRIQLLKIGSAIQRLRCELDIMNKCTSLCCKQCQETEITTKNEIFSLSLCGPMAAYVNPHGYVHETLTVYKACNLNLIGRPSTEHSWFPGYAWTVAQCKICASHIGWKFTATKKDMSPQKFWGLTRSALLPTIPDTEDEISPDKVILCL
Chain of IKZF2 (Helios) (Q16531 whole entry partner): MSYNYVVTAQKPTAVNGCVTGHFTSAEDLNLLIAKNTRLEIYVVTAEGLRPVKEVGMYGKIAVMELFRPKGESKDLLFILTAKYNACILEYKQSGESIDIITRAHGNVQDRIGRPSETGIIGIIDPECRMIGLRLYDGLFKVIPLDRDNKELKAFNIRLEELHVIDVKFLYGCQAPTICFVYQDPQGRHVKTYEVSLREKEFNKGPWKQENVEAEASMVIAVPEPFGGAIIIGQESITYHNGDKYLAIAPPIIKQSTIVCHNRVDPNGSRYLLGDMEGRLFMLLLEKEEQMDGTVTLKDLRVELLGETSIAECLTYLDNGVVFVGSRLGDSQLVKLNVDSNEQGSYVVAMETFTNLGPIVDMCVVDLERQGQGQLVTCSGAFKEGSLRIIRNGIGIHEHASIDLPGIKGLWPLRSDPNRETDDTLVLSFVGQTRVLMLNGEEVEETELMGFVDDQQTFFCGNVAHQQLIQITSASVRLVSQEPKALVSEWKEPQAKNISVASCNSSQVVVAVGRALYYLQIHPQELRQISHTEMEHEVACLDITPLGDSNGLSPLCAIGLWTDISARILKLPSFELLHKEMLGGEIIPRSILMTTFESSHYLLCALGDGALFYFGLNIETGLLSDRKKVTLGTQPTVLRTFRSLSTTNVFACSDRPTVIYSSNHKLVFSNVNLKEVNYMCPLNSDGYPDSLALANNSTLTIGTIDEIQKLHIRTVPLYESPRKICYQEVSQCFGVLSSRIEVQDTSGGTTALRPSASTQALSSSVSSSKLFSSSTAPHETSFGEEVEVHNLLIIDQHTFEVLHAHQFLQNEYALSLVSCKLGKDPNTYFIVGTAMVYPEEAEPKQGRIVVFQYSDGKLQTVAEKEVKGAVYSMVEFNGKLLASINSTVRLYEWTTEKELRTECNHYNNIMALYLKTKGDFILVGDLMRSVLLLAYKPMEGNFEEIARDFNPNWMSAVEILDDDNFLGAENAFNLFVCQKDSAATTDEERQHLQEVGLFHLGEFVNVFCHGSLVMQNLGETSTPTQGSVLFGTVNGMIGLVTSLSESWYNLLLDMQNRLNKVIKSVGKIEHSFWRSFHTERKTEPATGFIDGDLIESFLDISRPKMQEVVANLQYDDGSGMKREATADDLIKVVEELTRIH

The first assay addresses IKZF2 (Helios) (Homo sapiens, UniProt Q96SW2+Q9UKS7). The assay is described as follows: Prolabel quantification of IKZF2 protein levels in 293GT cells. The class given is cell-based. The conditions noted are these: 24 h, Pro-label assay, 293GT cells, 10 μM, read-out: IKZF2 % protein reduction at 10 μM, 24 h.
For the compound `O=C1CCC(N2Cc3cc(O[C@H]4CCCCC[C@@H]4NCC4CCOCC4)ccc3C2=O)C(=O)N1` (stereo partly drawn) [I-65, 3-(1-oxo-5-(((1S,2S)-2-(((tetrahydro-2H-pyran-4-yl)methyl)amino)cycloheptyl)oxy)isoindolin-2-yl)piperidine-2,6-dione], the IKZF2 % protein reduction at 10 µM is 76%. Still for that read-out and setting: then `O=C1CCC(N2Cc3cc(O[C@H]4CCCC[C@@H]4N4CC(OCC5CC5)C4)ccc3C2=O)C(=O)N1` (stereo partly drawn) [I-51, 3-(5-(((1S,2S)-2-(3-(cyclopropylmethoxy)azetidin-1-yl)cyclohexyl)oxy)-1-oxoisoindolin-2-yl)piperidine-2,6-dione], with 90%. As for `CO[C@H]1CCCC[C@@H]1Oc1ccc2c(c1)CN(C1CCC(=O)NC1=O)C2=O` (stereo partly drawn) [I-4, 3-(5-(((1S,2S)-2-methoxycyclohexyl)oxy)-1-oxoisoindolin-2-yl)piperidine-2,6-dione], the IKZF2 % protein reduction at 10 µM is 25%. Still for that read-out and setting: with `O=C1CCC(N2Cc3cc(O[C@H]4CCC[C@@H]4NCC4CC(F)(F)C4)ccc3C2=O)C(=O)N1` (stereo partly drawn) [I-194, 3-(5-(((1S,2S)-2-(((3,3-difluorocyclobutyl)methyl)amino)cyclopentyl)oxy)-1-oxoisoindolin-2-yl)piperidine-2,6-dione] the figure was 83%; with `CO[C@@H]1CCC[C@H]1N[C@H]1CCCC[C@@H]1Oc1ccc2c(c1)CN(C1CCC(=O)NC1=O)C2=O` (single isomer, unassigned) [I-118], 67%.

Turning to `COC1(C)CCN([C@H]2CCCC[C@@H]2Oc2ccc3c(c2)CN(C2CCC(=O)NC2=O)C3=O)CC1` (stereo partly drawn) [I-88, 3-(5-(((1S,2S)-2-(4-methoxy-4-methylpiperidin-1-yl)cyclohexyl)oxy)-1-oxoisoindolin-2-yl)piperidine-2,6-dione], the IKZF2 % protein reduction at 10 µM stood at 57%. As to `CC(C)CN[C@H]1CCC[C@@H]1Oc1ccc2c(c1)CN(C1CCC(=O)NC1=O)C2=O` (stereo partly drawn) [I-142, 3-(5-(((1S,2S)-2-(isobutylamino)cyclopentyl)oxy)-1-oxoisoindolin-2-yl)piperidine-2,6-dione], the IKZF2 % protein reduction at 10 µM was 83%. On the same count and under the same terms, with `O=C1CCC(N2Cc3cc(O[C@H]4CCC[C@@H]4N4CCCCC4)ccc3C2=O)C(=O)N1` (stereo partly drawn) [I-32, 3-(1-oxo-5-(((1S,2S)-2-(piperidin-1-yl)cyclopentyl)oxy)isoindolin-2-yl)piperidine-2,6-dione] the figure was 85%; with `O=C1CCC(N2Cc3cc(O[C@H]4CCCC[C@@H]4N4CC(OC5CC(F)(F)C5)C4)ccc3C2=O)C(=O)N1` (stereo partly drawn) [I-56, 3-(5-(((1S,2S)-2-(3-(3,3-difluorocyclobutoxy)azetidin-1-yl)cyclohexyl)oxy)-1-oxoisoindolin-2-yl)piperidine-2,6-dione], 91%. On the same count and under the same terms, with `O=C1CCC(N2Cc3cc(OC4CCCC4N4CCC5(CCOC5)CC4)ccc3C2=O)C(=O)N1` (single isomer, unassigned) [I-176, 3-(5-((2-(2-oxa-8-azaspiro[4.5]decan-8-yl)cyclopentyl)oxy)-1-oxoisoindolin-2-yl)piperidine-2,6-dione] the figure was 89%. Still for that read-out and setting: with `O=C1CCC(N2Cc3cc(O[C@H]4CCCC[C@@H]4NCc4ccccc4)ccc3C2=O)C(=O)N1` (stereo partly drawn) [I-22, 3-(5-(((1S,2S)-2-(benzylamino)cyclohexyl)oxy)-1-oxoisoindolin-2-yl)piperidine-2,6-dione] the figure was 80%; with `O=C1CCC(N2Cc3cc(O[C@H]4CCCC[C@@H]4NCC45CC(F)(C4)C5)ccc3C2=O)C(=O)N1` (stereo partly drawn) [I-133, 3-(5-(((1S,2S)-2-(((3-fluorobicyclo[1.1.1]pentan-1-yl)methyl)amino)cyclohexyl)oxy)-1-oxoisoindolin-2-yl)piperidine-2,6-dione], 81%. Regarding `N#CC12CC(CN[C@H]3CCCC[C@@H]3Oc3ccc4c(c3)CN(C3CCC(=O)NC3=O)C4=O)(C1)C2` (stereo partly drawn) [I-120, 3-((((1S,2S)-2-((2-(2,6-dioxopiperidin-3-yl)-1-oxoisoindolin-5-yl)oxy)cyclohexyl)amino)methyl)bicyclo[1.1.1]pentane-1-carbonitrile], the IKZF2 % protein reduction at 10 µM turned out to be 66%. On to `O=C1CCC(N2Cc3cc(O[C@H]4CCCC[C@@H]4NCC4CC(F)(F)C4)ccc3C2=O)C(=O)N1` (stereo partly drawn) [I-122, 3-(5-(((1S,2S)-2-(((3,3-difluorocyclobutyl)methyl)amino)cyclohexyl)oxy)-1-oxoisoindolin-2-yl)piperidine-2,6-dione], for which the IKZF2 % protein reduction at 10 µM stood at 84%. On the same count and under the same terms, with `O=C1CCC(N2Cc3cc(O[C@H]4CCCC[C@@H]4N4CC(OCc5ccccc5)C4)ccc3C2=O)C(=O)N1` (stereo partly drawn) [I-54, 3-(5-(((1S,2S)-2-(3-(benzyloxy)azetidin-1-yl)cyclohexyl)oxy)-1-oxoisoindolin-2-yl)piperidine-2,6-dione] the figure was 91%; with `CC1(C#N)CCN([C@H]2CCC[C@@H]2Oc2ccc3c(c2)CN(C2CCC(=O)NC2=O)C3=O)CC1` (stereo partly drawn) [I-38, 1-((1S,2S)-2-((2-(2,6-dioxopiperidin-3-yl)-1-oxoisoindolin-5-yl)oxy)cyclopentyl)-4-methylpiperidine-4-carbonitrile], 86%.

On to `O=C1CCC(N2Cc3cc(O[C@H]4CCCC[C@@H]4N(Cc4ccccc4)Cc4ccccc4)ccc3C2=O)C(=O)N1` (stereo partly drawn) [I-34, 3-(5-(((1S,2S)-2-(dibenzylamino)cyclohexyl)oxy)-1-oxoisoindolin-2-yl)piperidine-2,6-dione], for which the IKZF2 % protein reduction at 10 µM was 0%.

`CCN(CC)[C@H]1CCC[C@@H]1Oc1cc2c(cc1F)C(=O)N(C1CCC(=O)NC1=O)C2` (stereo partly drawn) [I-216, 3-(5-(((1S,2S)-2-(diethylamino)cyclopentyl)oxy)-6-fluoro-1-oxoisoindolin-2-yl)piperidine-2,6-dione]: the IKZF2 % protein reduction at 10 µM stood at 60%.

`CO[C@H]1CC[C@H](CN[C@H]2CCC[C@@H]2Oc2ccc3c(c2)CN(C2CCC(=O)NC2=O)C3=O)CC1` (stereo partly drawn) [I-159, 3-(5-(((1S,2S)-2-((((1r,4S)-4-methoxycyclohexyl)methyl)amino)cyclopentyl)oxy)-1-oxoisoindolin-2-yl)piperidine-2,6-dione]: the IKZF2 % protein reduction at 10 µM is 75%.

Regarding `CCN(CC)[C@@H]1CCC[C@H]1Oc1ccc2c(c1)CN(C1CCC(=O)NC1=O)C2=O` (stereo partly drawn) [I-43, 3-(5-(((1R,2R)-2-(diethylamino)cyclopentyl)oxy)-1-oxoisoindolin-2-yl)piperidine-2,6-dione], the IKZF2 % protein reduction at 10 µM came out at 0%.

For the compound `N#Cc1cccc(CN[C@H]2CCCC[C@@H]2Oc2ccc3c(c2)CN(C2CCC(=O)NC2=O)C3=O)c1` (stereo partly drawn) [I-132, 3-((((1S,2S)-2-((2-(2,6-dioxopiperidin-3-yl)-1-oxoisoindolin-5-yl)oxy)cyclohexyl)amino)methyl)benzonitrile], the IKZF2 % protein reduction at 10 µM is 80%. Same read-out and setting: then `COC1CN([C@H]2CCCCC[C@@H]2Oc2ccc3c(c2)CN(C2CCC(=O)NC2=O)C3=O)C1` (stereo partly drawn) [I-68, 3-(5-(((1S,2S)-2-(3-methoxyazetidin-1-yl)cycloheptyl)oxy)-1-oxoisoindolin-2-yl)piperidine-2,6-dione], with 90%.

The same assay, now with this note: 24 h, read-out: IKZF2 % protein reduction at 10 μM, 24 h.
For the compound `CCN[C@H]1c2ccccc2C[C@@H]1Oc1ccc2c(c1)CN(C1CCC(=O)NC1=O)C2=O` (stereo partly drawn) [I-198, 3-(5-(((1S,2S)-1-(ethylamino)-2,3-dihydro-1H-inden-2-yl)oxy)-1-oxoisoindolin-2-yl)piperidine-2,6-dione], the IKZF2 % protein reduction at 10 µM was found to be 67%.
